# According to paper PMC5564600 (Oncotarget, 2017):
# Experiments:
# Test in all cases: biochemical
# Format in all cases: binding
# [1] = biological target: T1, panel of 442 kinases (Homo sapiens, UniProt Q00532); settings: CDKL1; for remaining activity at 1 µM: read-out: % of control at 1 µM
# T1 construct: purchased Ambit Biosciences (scanMAXX KINOMEscan)
# [2] = biological target: T2, panel of 442 kinases (Homo sapiens, UniProt Q5VT25); settings: kinase MRCKA; for remaining activity at 1 µM: read-out: % of control at 1 µM
# T2 construct: purchased Ambit Biosciences (scanMAXX KINOMEscan)
# [3] = biological target: T3, panel of 442 kinases (Homo sapiens, UniProt Q9UBE8); settings: kinase NLK; for remaining activity at 1 µM: read-out: % of control at 1 µM
# T3 construct: purchased Ambit Biosciences (scanMAXX KINOMEscan)
# T3 sequence (Q9UBE8 1-527): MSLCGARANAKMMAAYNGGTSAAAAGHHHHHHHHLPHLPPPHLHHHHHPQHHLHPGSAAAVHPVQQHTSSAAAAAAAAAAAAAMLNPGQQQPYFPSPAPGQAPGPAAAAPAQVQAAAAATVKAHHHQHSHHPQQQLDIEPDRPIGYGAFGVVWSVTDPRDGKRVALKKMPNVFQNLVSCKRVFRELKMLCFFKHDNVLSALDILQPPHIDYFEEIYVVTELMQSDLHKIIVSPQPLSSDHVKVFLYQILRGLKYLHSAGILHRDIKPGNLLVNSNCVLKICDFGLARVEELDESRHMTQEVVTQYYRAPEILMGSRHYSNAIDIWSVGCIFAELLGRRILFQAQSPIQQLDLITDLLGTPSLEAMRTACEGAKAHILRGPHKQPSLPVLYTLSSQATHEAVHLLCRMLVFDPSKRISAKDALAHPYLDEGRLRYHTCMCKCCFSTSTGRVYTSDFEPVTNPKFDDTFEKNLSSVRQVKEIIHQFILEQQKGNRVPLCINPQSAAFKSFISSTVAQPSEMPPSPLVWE
# [4] = biological target: T4, panel of 442 kinases (Homo sapiens, UniProt P00519, E255K); settings: ABL1(E255K)-phosphorylated; for remaining activity at 1 µM: read-out: % of control at 1 µM
# T4 construct: purchased Ambit Biosciences (scanMAXX KINOMEscan)
# [5] = biological target: T5, panel of 442 kinases (Homo sapiens, UniProt Q96RR4); settings: CAMKK2; for remaining activity at 1 µM: read-out: % of control at 1 µM
# T5 construct: purchased Ambit Biosciences (scanMAXX KINOMEscan)
# [6] = biological target: T6, panel of 442 kinases (Homo sapiens, UniProt P36888, R834Q); settings: kinase FLT3(R834Q); for remaining activity at 1 µM: read-out: % of control at 1 µM
# T6 construct: purchased Ambit Biosciences (scanMAXX KINOMEscan)
# T6 sequence (P36888 27-993 R834Q): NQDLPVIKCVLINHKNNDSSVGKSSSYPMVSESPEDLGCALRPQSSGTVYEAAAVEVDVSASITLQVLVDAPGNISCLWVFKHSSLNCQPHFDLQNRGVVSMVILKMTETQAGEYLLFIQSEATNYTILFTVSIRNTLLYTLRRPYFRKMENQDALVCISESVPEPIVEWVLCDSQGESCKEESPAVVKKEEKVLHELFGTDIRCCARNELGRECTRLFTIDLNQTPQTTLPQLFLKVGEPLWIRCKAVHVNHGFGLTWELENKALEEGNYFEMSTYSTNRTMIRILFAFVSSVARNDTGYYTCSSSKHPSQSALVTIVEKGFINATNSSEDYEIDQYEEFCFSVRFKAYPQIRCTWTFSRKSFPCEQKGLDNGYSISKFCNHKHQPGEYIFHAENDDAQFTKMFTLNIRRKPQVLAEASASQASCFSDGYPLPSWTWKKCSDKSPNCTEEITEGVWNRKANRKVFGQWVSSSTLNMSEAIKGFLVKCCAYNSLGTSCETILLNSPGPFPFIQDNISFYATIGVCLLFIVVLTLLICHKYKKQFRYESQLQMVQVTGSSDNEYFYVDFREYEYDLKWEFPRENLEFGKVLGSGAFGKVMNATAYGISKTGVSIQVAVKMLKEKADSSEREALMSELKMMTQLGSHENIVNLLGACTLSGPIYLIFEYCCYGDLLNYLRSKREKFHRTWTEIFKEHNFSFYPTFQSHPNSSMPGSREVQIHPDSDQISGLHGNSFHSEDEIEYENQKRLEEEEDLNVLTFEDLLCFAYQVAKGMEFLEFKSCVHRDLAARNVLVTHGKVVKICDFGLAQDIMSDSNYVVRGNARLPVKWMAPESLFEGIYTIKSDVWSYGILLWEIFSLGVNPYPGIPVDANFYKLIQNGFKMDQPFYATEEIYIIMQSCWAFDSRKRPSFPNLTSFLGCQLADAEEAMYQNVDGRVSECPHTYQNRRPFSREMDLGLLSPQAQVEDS
# [7] = biological target: T7, panel of 442 kinases (Homo sapiens, UniProt Q96SB4); settings: kinase SRPK1; for remaining activity at 1 µM: read-out: SRPK1 (% of control at 1 µM)
# T7 construct: purchased Ambit Biosciences (scanMAXX KINOMEscan)
# [8] = biological target: T8, panel of 442 kinases (Homo sapiens, UniProt P15056, V600E); settings: BRAF(V600E); for remaining activity at 1 µM: read-out: % of control at 1 µM
# T8 construct: purchased Ambit Biosciences (scanMAXX KINOMEscan)
# [9] = biological target: T9, panel of 442 kinases (Homo sapiens, UniProt P31152); settings: ERK4; for remaining activity at 1 µM: read-out: % of control at 1 µM
# T9 construct: purchased Ambit Biosciences (scanMAXX KINOMEscan)
# [10] = biological target: T10, panel of 442 kinases (Homo sapiens, UniProt P10721, V559D); settings: kinase KIT(V559D); for remaining activity at 1 µM: read-out: % of control at 1 µM
# T10 construct: purchased Ambit Biosciences (scanMAXX KINOMEscan)
# [11] = biological target: T11, panel of 442 kinases (Homo sapiens, UniProt P15735); settings: kinase PHKG2; for remaining activity at 1 µM: read-out: % of control at 1 µM
# T11 construct: purchased Ambit Biosciences (scanMAXX KINOMEscan)
# T11 sequence (P15735 1-406): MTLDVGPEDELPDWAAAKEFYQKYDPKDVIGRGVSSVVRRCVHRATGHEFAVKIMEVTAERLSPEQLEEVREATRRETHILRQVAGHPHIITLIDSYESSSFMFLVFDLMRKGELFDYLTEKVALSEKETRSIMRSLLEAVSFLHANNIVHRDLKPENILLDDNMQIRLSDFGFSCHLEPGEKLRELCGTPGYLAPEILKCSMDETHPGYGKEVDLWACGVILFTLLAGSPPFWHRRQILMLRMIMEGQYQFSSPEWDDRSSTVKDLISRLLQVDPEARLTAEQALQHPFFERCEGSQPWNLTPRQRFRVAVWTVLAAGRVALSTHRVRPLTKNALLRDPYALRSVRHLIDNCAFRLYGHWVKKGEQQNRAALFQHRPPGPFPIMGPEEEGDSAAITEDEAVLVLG
# [12] = biological target: T12, panel of 442 kinases (Homo sapiens, UniProt P48736); settings: kinase PIK3CG; 1 µM; read-out: % of control at 1 µM
# T12 construct: purchased Ambit Biosciences (scanMAXX KINOMEscan)
# [13] = 10 µM, read-out: % of control at 10 µM
# T1 sequence (Q00532 whole entry): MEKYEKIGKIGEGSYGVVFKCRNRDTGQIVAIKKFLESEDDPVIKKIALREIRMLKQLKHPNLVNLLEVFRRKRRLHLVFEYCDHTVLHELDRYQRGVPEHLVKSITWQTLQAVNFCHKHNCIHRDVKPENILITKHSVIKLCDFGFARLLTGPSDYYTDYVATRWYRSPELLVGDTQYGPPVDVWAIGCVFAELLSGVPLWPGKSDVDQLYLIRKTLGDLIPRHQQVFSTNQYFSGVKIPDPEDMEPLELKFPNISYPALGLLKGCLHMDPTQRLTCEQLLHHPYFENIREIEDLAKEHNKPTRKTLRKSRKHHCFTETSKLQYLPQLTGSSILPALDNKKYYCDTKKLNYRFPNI
# T12 sequence (P48736 whole entry): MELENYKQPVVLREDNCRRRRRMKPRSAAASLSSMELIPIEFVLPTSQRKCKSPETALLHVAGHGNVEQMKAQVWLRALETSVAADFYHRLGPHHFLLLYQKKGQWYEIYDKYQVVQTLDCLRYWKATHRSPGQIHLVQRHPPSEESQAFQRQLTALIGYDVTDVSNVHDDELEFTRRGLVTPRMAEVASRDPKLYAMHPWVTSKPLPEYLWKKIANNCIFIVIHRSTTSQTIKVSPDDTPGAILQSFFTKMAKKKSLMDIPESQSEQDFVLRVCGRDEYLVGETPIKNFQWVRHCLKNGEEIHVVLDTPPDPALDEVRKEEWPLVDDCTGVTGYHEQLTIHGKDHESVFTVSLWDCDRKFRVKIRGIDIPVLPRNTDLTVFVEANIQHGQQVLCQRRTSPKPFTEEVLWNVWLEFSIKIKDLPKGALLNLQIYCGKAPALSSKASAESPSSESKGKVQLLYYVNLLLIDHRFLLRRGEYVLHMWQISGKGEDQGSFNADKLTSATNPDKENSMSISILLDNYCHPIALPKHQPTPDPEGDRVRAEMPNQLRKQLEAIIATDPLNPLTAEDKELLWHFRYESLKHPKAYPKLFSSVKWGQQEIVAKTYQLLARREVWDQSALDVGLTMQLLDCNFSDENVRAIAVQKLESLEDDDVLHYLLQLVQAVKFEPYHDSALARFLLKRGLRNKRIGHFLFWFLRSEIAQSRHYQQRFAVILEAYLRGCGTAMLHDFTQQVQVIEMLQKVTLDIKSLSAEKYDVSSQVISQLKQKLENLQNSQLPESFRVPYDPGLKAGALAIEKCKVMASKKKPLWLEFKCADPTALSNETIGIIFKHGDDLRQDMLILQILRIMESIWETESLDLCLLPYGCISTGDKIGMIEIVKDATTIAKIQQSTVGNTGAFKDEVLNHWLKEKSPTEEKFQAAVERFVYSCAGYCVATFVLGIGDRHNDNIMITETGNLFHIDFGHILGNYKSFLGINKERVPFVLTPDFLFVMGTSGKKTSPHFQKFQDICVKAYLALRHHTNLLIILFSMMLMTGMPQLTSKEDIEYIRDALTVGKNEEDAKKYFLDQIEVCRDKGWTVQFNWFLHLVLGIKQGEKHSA
# T9 sequence (P31152 whole entry): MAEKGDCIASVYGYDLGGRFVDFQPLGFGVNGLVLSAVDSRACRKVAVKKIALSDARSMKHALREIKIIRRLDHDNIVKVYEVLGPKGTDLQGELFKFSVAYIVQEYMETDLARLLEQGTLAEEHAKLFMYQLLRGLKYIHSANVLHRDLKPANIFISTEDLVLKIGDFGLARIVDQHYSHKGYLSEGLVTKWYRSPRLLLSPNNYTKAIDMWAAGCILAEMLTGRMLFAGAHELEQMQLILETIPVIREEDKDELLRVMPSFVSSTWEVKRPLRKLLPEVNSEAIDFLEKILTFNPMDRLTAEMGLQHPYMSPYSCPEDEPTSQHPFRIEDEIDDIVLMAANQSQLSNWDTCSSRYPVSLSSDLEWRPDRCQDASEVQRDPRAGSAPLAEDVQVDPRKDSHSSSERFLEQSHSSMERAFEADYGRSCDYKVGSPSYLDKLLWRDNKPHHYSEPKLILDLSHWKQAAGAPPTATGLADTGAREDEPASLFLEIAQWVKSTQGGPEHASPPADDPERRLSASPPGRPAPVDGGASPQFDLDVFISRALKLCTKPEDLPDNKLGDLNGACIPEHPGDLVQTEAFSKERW
# T5 sequence (Q96RR4 whole entry): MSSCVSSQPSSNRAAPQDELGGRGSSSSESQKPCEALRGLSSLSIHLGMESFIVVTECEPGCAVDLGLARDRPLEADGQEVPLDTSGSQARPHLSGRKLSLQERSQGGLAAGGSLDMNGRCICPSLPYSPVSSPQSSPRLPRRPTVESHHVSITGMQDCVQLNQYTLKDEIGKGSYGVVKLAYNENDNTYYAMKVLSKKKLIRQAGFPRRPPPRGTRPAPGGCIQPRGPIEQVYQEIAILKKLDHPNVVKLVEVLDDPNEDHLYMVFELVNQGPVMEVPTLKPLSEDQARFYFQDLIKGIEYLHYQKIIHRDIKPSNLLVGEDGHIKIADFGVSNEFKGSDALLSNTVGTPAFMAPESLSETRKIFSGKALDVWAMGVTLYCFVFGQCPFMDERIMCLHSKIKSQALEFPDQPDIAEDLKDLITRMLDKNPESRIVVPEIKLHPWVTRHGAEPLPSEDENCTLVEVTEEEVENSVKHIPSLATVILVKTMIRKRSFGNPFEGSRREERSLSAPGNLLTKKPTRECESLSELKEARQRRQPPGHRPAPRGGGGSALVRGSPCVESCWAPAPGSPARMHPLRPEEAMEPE
# T8 sequence (P15056 whole entry V600E): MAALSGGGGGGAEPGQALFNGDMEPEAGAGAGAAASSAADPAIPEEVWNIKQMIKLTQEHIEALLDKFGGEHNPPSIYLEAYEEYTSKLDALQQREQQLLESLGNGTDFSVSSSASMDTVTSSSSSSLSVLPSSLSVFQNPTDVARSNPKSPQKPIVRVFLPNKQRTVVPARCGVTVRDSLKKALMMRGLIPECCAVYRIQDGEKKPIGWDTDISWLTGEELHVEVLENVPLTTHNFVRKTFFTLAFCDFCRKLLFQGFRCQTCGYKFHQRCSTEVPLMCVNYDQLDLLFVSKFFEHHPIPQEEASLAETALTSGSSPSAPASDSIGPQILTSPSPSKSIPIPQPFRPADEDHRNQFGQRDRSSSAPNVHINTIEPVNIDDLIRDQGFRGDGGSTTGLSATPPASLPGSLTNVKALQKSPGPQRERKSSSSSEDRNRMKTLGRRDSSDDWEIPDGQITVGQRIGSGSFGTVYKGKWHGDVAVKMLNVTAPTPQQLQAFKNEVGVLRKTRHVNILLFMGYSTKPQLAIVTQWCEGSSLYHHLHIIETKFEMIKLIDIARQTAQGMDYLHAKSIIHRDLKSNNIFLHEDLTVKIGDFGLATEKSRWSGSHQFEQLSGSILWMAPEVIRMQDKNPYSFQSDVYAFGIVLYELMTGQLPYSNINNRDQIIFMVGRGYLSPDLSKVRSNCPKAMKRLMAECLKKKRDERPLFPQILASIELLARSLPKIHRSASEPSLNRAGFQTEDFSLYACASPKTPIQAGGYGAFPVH
# T7 sequence (Q96SB4 whole entry): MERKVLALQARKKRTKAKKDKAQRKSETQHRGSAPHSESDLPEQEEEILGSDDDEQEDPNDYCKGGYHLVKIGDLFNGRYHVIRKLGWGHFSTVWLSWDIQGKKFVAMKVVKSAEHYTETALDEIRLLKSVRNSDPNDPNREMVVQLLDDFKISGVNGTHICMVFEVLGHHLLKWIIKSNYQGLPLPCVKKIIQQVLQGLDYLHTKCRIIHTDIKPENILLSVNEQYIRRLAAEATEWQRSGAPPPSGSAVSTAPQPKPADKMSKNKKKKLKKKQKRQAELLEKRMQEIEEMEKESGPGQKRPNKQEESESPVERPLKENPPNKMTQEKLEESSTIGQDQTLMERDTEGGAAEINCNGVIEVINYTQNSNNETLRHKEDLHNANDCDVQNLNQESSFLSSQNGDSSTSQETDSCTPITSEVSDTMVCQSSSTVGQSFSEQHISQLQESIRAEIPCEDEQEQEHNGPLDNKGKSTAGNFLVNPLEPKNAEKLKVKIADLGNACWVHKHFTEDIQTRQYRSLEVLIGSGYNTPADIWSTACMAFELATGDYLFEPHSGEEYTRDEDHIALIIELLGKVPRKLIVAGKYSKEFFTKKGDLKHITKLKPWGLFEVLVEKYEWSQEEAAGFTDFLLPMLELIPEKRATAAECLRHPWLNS
# T10 sequence (P10721 26-976 V559D): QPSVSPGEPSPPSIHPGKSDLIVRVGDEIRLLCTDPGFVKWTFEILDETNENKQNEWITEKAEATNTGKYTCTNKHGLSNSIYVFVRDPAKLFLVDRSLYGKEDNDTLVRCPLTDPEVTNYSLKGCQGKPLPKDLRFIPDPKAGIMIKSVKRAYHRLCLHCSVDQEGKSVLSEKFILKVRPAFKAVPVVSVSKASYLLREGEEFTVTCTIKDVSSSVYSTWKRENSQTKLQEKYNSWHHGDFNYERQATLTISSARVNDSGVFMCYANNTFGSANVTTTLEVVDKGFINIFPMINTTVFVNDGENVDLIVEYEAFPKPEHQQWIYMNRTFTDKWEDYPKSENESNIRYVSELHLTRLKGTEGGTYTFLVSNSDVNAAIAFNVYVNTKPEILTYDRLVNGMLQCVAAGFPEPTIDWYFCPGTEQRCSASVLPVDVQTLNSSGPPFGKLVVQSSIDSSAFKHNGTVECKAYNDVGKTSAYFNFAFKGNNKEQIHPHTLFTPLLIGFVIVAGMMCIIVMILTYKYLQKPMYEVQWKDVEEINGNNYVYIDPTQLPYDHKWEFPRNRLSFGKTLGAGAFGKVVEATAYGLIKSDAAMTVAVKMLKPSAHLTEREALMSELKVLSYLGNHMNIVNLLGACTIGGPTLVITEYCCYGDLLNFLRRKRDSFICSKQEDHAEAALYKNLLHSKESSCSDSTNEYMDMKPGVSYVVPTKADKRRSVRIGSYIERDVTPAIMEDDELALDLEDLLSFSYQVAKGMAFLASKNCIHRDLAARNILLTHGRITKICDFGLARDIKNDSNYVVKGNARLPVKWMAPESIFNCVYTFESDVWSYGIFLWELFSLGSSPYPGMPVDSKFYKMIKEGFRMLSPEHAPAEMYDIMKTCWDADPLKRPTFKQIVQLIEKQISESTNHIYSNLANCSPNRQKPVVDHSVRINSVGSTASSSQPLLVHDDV
SMILES,remaining activity at 1 µM [1] [%],remaining activity at 1 µM [2] [%],remaining activity at 1 µM [3] [%],remaining activity at 1 µM [4] [%],remaining activity at 1 µM [5] [%],remaining activity at 1 µM [6] [%],remaining activity at 1 µM [7] [%],remaining activity at 1 µM [8] [%],remaining activity at 1 µM [9] [%],remaining activity at 1 µM [10] [%],remaining activity at 1 µM [11] [%],remaining activity at 1 µM [12] [%],also measured
Nc1cc(C(F)(F)F)c(-c2cc(N3CCOCC3)nc(N3CCOCC3)n2)cn1 [Buparlisib],100,80,93,74,100,100,100,74,100,100,100,,"remaining activity at 10 µM [1, 13]: 100%; remaining activity at 10 µM [2, 13]: 100%; remaining activity at 10 µM [3, 13]: 100%; remaining activity at 10 µM [4, 13]: 96%; remaining activity at 10 µM [5, 13]: 100%; remaining activity at 10 µM [6, 13]: 100%; remaining activity at 10 µM ([7]; 10 µM, read-out: SRPK1 (% of control at 10 µM)): 100%; remaining activity at 10 µM [8, 13]: 44%; remaining activity at 10 µM [9, 13]: 100%; remaining activity at 10 µM [10, 13]: 66%; remaining activity at 10 µM [11, 13]: 100%"
"Cn1c(=O)n(-c2ccc(C(C)(C)C#N)cc2)c2c3cc(-c4cnc5ccccc5c4)ccc3ncc21 [Dactolisib, 2-methyl-2-[4-(3-methyl-2-oxo-8-quinolin-3-yl-2,3-dihydroimidazo[4,5-c]quinolin-1-yl)-phenyl] propionitrile]",100,83,81,79,52,,88,82,100,65,100,38,
COc1ncc(-c2ccc3nccc(-c4ccnnc4)c3c2)cc1NS(=O)(=O)c1ccc(F)cc1F [Omipalisib],100,97,95,95,71,100,100,,100,96,100,0,
"FC(F)c1nc2ccccc2n1-c1nc(N2CCOCC2)nc(N2CCOCC2)n1 [ZSTK474, 2-(difluoromethyl)-1-[4,6-di(4-morpholinyl)-1,3,5-triazin-2-yl]-1H-benzimidazole]",100,83,84,100,100,100,67,56,85,84,100,0,
